Test results from ChEMBL document CHEMBL1201862, “PubChem BioAssay data set” (2004).
Blank lines part the entries; values can stand above or below the compound they belong to. Activity calls are given as the source filed them.

How the values were obtained:
[1] = target: T1, Type-1 angiotensin II receptor (Homo sapiens, UniProt P30556); assay: antagonism of angiotensin II type 1 receptor – cell-based, uHTS hits, selectivity assay for APJ receptor antagonist project, dose response (AID 463214); assay type: functional;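 also: antagonist potency against angiotensin II stimulated AT1 response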
T1 sequence (P30556 whole entry): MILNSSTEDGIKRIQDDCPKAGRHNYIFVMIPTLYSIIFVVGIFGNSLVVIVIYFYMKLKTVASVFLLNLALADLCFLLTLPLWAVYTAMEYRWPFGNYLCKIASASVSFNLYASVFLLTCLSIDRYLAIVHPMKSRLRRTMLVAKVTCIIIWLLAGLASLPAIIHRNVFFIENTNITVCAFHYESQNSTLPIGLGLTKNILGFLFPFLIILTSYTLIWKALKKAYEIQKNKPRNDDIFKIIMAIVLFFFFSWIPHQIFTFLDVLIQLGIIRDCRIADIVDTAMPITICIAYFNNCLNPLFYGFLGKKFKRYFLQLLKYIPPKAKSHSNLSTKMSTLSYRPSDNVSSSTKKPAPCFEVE

[2] = target: Heat shock protein HSP 90-alpha (Homo sapiens, UniProt P07900); assay: Luminescence-based dose response biochemical high throughput screening assay for inhibitors of the Heat Shock Protein 90 (HSP90). [Related pubchem assays: 1831 (Summary AID.), 1846 (Confirmation screen.), 1789 (Primary screen.)]
[3] = target: T2, Heat shock factor protein 1 (Mus musculus, UniProt P38532); assay: decrease of HSF1-responsive luciferase luminescence – cell-based, NIH3T3, dose retest, confirmation (AID 2382); assay type: functional;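 also: NIH3T3 fibroblasts with HSF1-driven luciferase reporter stressed by proteasome inhibitor MG132; luminescence from HSF1-driven luciferase expression after 8 hours of MG132 stress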
T2 sequence (P38532 whole entry): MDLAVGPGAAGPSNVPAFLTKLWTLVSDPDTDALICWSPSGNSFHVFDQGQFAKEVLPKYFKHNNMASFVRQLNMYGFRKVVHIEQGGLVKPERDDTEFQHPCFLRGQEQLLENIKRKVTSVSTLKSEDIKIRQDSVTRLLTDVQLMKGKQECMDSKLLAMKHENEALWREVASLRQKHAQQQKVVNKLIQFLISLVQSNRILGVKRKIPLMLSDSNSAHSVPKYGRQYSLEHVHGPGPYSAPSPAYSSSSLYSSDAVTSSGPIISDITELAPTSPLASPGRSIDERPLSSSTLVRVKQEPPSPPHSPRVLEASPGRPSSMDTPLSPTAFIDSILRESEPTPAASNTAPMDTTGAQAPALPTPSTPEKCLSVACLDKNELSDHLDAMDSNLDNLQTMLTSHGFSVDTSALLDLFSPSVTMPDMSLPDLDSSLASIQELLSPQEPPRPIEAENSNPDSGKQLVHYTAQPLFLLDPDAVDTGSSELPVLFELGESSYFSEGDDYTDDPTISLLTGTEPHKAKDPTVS

[4] = DRD fibroblast viability loss – cell-based, non-viral oncogenic, luminescence, dose response (AID 1934); assay type: functional; conditions: Homo sapiens
BJ [5] = assay: BJ-TERT fibroblast viability loss – cell-based, RAS-independent, luminescence, dose response (AID 1933); assay type: functional; conditions: Homo sapiens
BJ [6] = assay: growth inhibition of engineered Ras-driven BJ cells – cell-based, alamar blue fluorescence, cherrypicked samples, dose response (AID 2631); assay type: functional; conditions: Homo sapiens;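 also: confirmatory dose-response assay in RAS-dependent BJ fibroblasts engineered with TERT, LT and ST, with cytotoxicity read by fluorescence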
BJ [7] = assay: cells; assay type: functional, cell-based; conditions: Homo sapiens
BJ [8] = assay: BJ-TERT-LT-ST fibroblast viability loss – cell-based, RAS-independent, luminescence, dose response (AID 1935); assay type: functional; conditions: Homo sapiens;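 also: BJ fibroblasts immortalized with TERT plus LT and ST oncogenes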
Beta-galactosidase = Beta-galactosidase (Escherichia coli, UniProt Q8VNN2); assay: PubChem AID 485352; assay type: functional
Chain of Beta-galactosidase (Q8VNN2 whole entry): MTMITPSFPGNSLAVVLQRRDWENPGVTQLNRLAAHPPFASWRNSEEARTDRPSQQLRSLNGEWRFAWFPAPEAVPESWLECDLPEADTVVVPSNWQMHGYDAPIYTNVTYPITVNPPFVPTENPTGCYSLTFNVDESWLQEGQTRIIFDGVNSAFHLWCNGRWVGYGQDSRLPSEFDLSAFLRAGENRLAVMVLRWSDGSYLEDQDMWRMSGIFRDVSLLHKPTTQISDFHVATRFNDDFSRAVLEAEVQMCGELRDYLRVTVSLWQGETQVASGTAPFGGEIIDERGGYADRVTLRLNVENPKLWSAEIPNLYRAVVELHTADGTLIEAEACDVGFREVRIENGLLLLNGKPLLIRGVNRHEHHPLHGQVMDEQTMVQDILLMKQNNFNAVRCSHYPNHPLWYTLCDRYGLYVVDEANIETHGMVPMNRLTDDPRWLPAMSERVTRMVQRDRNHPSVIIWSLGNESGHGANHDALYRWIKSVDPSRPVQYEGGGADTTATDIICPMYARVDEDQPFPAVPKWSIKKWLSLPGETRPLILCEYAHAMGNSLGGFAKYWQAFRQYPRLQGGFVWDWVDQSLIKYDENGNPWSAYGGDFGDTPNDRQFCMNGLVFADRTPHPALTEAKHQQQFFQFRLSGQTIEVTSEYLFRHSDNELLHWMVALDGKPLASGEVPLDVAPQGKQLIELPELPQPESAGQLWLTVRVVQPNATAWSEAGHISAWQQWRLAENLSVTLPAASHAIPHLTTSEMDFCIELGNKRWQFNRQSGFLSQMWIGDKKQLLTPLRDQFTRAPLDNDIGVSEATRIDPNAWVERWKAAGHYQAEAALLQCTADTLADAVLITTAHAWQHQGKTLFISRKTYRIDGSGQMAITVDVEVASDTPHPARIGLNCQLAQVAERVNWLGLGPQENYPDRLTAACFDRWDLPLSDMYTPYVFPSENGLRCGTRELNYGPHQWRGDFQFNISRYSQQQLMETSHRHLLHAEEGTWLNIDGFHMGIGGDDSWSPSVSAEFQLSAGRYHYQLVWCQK

HeLa = assay: ATP-based viability loss in HeLa cells – cell-based, CellTiter-Glo luminescence, cherry-pick samples, cytotoxicity control for MITF activator project, dose response (AID 540259); assay type: functional; conditions: Homo sapiens
[9] = target: T3, Mannose-6-phosphate isomerase (Homo sapiens, UniProt P34949); assay: MPI enzyme activity inhibition – biochemical, fluorescence intensity, coupled assay, primary screen (AID 1209)
T3 sequence (P34949 whole entry): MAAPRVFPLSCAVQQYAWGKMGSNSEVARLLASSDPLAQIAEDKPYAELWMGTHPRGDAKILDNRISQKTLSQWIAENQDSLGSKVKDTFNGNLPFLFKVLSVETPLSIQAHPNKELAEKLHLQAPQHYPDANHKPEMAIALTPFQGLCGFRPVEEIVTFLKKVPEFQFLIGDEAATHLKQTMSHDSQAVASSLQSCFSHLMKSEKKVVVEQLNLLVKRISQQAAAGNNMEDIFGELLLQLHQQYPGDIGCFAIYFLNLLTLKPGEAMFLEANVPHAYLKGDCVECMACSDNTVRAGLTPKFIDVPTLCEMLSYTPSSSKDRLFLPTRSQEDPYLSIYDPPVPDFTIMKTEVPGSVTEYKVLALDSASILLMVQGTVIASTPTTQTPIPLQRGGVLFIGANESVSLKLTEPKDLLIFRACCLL

Phosphomannomutase 2 = target: T4, Phosphomannomutase 2 (Homo sapiens, UniProt O15305); assay: Counter screen SAR assay for PMM2 inhibitors via a fluorescence intensity assay. [Related pubchem assays (depositor defined):AID1545, AID1574]
T4 sequence (O15305 whole entry): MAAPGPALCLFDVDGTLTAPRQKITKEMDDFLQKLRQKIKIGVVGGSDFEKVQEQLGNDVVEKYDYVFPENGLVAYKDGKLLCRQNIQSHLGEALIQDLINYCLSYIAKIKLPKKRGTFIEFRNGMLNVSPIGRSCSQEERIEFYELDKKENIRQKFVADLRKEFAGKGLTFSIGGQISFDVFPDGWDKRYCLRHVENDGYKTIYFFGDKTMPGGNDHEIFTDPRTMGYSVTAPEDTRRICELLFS

Leucine aminopeptidase = target: T5, Leucine aminopeptidase (Plasmodium falciparum 3D7, UniProt Q8IL11); assay: P. falciparum M17LAP inhibitors, primary screen, biochemical, fluorogenic H-Leu-NHMec substrate, 1536-well (AID 1619); assay type: functional
T5 sequence (Q8IL11 whole entry): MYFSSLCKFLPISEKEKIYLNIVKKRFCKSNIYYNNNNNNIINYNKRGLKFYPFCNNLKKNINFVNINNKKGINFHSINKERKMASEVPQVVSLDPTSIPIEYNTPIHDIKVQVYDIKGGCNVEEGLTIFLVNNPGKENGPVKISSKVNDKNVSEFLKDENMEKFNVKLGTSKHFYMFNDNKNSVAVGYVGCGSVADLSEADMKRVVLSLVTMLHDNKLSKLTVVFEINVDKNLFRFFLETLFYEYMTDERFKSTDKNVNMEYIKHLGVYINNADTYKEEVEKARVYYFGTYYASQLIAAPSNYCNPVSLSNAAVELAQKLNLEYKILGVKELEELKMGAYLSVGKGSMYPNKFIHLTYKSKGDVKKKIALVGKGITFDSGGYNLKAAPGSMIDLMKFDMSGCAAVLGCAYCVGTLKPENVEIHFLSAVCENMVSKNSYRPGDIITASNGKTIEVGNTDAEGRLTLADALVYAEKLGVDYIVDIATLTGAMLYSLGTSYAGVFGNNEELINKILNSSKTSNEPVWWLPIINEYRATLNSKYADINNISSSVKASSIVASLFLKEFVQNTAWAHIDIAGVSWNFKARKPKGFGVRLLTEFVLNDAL

[10] = target: T3, Mannose-6-phosphate isomerase; assay: phosphomannose isomerase inhibition – biochemical, fluorescence intensity, confirmation (AID 1535)
[11] = target: T6, High affinity choline transporter 1 (Homo sapiens, UniProt Q9GZV3); assay: human choline transporter blockers, potency – cell-based, 5-point CRC, membrane potential dye, dose response (AID 504840); assay type: functional
T6 sequence (Q9GZV3 whole entry): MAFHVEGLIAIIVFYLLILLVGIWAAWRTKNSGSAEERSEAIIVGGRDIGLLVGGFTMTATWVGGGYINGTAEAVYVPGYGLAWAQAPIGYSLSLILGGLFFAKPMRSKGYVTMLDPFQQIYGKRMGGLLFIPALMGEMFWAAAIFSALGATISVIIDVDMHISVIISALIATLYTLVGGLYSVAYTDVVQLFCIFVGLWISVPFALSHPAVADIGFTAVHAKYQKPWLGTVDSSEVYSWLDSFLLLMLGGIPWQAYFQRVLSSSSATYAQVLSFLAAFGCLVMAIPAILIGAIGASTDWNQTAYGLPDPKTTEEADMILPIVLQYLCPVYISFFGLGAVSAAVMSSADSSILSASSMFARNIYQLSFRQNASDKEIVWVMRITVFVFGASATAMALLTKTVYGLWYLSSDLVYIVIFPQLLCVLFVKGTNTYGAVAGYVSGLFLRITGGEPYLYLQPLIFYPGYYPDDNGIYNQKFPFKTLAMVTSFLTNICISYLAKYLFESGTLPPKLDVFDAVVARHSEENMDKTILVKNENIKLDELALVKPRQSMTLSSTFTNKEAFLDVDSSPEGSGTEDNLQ

[12] = target: Glucose-6-phosphate 1-dehydrogenase (Homo sapiens, UniProt P11413); assay: inhibition of Homo sapiens G6PD, dose series – biochemical, fluorescence, selectivity assay for P. falciparum G6PD inhibitor project, dose response (AID 504792); assay type: functional
Chain of Glucose-6-phosphate 1-dehydrogenase (P11413 whole entry): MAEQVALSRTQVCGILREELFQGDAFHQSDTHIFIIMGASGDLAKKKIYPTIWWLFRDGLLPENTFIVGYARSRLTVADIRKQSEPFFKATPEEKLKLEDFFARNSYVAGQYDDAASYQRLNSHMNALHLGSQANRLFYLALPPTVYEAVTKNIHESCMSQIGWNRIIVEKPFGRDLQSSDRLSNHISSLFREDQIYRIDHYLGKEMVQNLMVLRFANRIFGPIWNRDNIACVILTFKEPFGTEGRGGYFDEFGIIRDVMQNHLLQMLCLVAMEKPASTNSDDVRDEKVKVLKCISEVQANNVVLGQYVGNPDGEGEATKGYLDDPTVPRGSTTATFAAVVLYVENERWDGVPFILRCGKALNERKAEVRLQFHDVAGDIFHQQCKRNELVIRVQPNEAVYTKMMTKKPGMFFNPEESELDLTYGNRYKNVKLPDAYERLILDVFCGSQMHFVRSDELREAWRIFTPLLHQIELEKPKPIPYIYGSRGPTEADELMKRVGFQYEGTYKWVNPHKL

Structure (SMILES): O=[N+]([O-])c1ccc(N=Nc2ncc[nH]2)cc1
IC50 [1]: 23.5 µM (not active) | IC50 [2]: 10.2 µM (not active) | EC50 [3]: 8.49 µM (active) | EC50 [4]: 11.5 µM (inconclusive) | EC50 (BJ [5]): 5.4 µM (inconclusive) | EC50 (BJ [6]): 14.8 µM (active) | EC50 (BJ [7]): 2.43 µM (inconclusive) | EC50 (BJ [8]): > 150 µM (inconclusive) | EC50 (Beta-galactosidase): > 40 µM (inactive)

Structure (SMILES): COc1ccc(OCc2cc(C(=O)NC(C)c3cnn(C)c3)no2)c(Cl)c1 (configuration not stated)
AC50 (HeLa): 79.6 µM (active)

IC50 [9]: 6.08 µM (active) | IC50 (Phosphomannomutase 2): > 100 µM (inactive) | IC50 (Leucine aminopeptidase): 46 µM (active) | IC50 [10]: > 50 µM (inactive) | IC50 [11]: 13.2 µM (active)
Structure (SMILES): CC(C)(C)c1ccc(C(=O)CSc2nnc[nH]2)cc1

Structure (SMILES): O=C(c1cnn2ccccc12)N1CCc2ccccc21
AC50 (HeLa): 58.6 µM (active)

Structure (SMILES): COc1cc(-c2nnc3n2N=C(c2ccccc2)CS3)cc(OC)c1OC
IC50 [12]: > 80 µM (inactive)
